Values quoted from earlier work in patent publication US6500833B1, “(+)-Hydroxyrisperidone compositions and methods” (priority 1998, dated 2002).

Settings: condition associated with torsades de pointes

Row | SMILES | prolongation of QT interval
1 | Cc1nc2n(c(=O)c1CCN1CCC(c3noc4cc(F)ccc34)CC1)CCCC2O (racemic) [hydroxyrisperidone, 9-hydroxyrisperidone] | implicated in a prolongation of QT interval
2 | Cc1nc2n(c(=O)c1CCN1CCC(c3noc4cc(F)ccc34)CC1)CCCC2 [risperidone, Risperidone] | implicated in a prolongation of QT interval
